Measurements reported in patent publication US10562898B2, “Substituted benzenesulfonamides as inhibitors of alpha-4 beta-7 integrin activity” (EA PHARMA CO., LTD., priority 2016, dated 2020).

Molecular target: T1, α4β7 integrin (Homo sapiens, UniProt P13612+P26010)
T1 construct: a cell line RPMI-8866, which is known to express α4β7 integrin; endogenous in cells; host or cells: RPMI-8866 (human B cell line)
T1 sequence (P13612 34-1032): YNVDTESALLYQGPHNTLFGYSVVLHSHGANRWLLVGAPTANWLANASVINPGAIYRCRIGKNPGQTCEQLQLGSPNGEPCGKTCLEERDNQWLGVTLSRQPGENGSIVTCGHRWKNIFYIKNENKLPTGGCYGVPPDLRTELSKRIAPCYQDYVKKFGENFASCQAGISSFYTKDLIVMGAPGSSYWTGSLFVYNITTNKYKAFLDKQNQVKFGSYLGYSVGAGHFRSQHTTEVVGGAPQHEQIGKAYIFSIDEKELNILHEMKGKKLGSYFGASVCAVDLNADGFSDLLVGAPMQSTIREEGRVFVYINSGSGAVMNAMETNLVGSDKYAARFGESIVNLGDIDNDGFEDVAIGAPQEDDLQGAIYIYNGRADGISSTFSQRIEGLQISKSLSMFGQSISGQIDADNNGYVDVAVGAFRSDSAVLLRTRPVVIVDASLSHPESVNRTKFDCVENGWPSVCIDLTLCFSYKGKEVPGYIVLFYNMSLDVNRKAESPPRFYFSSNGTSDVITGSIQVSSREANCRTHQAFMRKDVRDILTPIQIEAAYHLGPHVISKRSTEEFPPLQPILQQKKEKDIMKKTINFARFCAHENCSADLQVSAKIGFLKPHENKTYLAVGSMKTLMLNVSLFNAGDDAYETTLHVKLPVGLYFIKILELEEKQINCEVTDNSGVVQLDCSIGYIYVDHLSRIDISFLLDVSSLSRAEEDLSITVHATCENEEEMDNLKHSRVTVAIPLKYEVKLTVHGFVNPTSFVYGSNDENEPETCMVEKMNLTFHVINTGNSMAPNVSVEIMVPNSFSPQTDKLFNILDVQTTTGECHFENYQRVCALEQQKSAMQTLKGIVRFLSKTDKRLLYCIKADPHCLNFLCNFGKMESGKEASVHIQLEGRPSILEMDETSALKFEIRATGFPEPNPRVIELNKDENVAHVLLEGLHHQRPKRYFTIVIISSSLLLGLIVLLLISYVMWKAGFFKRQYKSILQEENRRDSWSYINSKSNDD
T1 sequence (P26010 20-798): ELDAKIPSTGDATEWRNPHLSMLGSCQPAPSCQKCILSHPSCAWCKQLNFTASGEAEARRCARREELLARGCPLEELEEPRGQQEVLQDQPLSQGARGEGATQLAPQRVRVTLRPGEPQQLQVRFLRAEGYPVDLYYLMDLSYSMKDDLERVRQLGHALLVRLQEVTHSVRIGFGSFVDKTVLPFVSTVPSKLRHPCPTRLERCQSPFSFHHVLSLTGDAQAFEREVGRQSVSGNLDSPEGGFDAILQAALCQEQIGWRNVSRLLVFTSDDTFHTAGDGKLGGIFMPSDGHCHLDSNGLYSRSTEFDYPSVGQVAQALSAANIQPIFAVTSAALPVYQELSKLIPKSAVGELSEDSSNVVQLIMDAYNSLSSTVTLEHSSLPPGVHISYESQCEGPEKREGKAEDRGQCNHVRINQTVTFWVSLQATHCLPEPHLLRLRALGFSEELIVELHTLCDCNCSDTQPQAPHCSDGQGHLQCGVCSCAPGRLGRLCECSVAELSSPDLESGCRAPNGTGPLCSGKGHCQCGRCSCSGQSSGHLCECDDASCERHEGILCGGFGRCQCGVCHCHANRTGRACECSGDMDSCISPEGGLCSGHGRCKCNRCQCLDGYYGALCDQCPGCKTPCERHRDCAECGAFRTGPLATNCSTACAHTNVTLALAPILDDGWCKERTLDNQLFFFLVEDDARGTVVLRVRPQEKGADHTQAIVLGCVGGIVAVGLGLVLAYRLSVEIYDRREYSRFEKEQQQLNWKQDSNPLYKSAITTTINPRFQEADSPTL
Assay: MAdCAM-1/α4β7 integrin binding inhibitory activity evaluation test (RPMI-8866 cells binding to MAdCAM-1/Fc)
Format: cell-based
Conditions: recombinant mouse MAdCAM-1/Fc, no serum
Experimental: (2) MAdCAM-1/α4β7 Integrin Binding Inhibitory Activity Evaluation Test
Each test substance was measured in terms of an ability to inhibit the MAdCAM-1 binding of a human B cell line, namely, a cell line RPMI-8866, which is known to express α4β7 integrin.
A solution of recombinant mouse MAdCAM-1/Fc (R&D Systems, Inc.) (0.75 μg/mL) diluted with a buffer A (carbonate buffer, pH 9.6) was added in an amount of 50 μL/well to a 96-well microtiter plate, followed by incubation at 4° C. overnight. After the plate was washed with PBS once, 150 μL/well of Block Ace (Snow Brand Milk Products Co., Ltd.) was added, followed by incubation at room temperature for 2 hours. After removal, the plate was washed with PBS once.
Then, 100 μL of the RPMI-8866 cells (2×10^6 cells/mL) and 100 μL of the test substance at each of various concentrations diluted with a binding buffer (DMEM containing 40 mM HEPES, 0.2% BSA, and 4 mM MnCl2) were added on the plate coated with the MAdCAM-1/Fc (5×10^5 cells/well), followed by incubation at 30° C. for 15 to 60 minutes. After the cells were bound to the wells, the plate was washed with PBS to remove unbound cells. A buffer C (PBS containing 1.5% Triton X-100) in an amount 50 μL/well was added to the plate to lyse the bound RPMI-8866 cells. After 30 μL of a substrate buffer (Promega, CytoTox 96 Non-Radioactive Cytotoxicity Assay) was added to 30 μL of the cell lysate, a reaction was allowed to proceed at room temperature in the dark for 30 minutes. After 30 μL of a stop solution (Promega, CytoTox 96 Non-Radioactive Cytotoxicity Assay) was added to each, and then an absorbance at 490 nm was measured using a plate reader. The absorbance obtained here represents a detection result of an activity of lactate dehydrogenase (LDH) eluted in the supernatant of each well, that is, the absorbance is proportional to the number of RPMI-8866 cells bound to the MAdCAM-1 and thus remaining on the plate. The test was performed in duplicate. Provided that the absorbance of the well containing no test substance was 100%, a cell binding rate with the test substance at each of the various concentrations was figured out, and a concentration IC50 which brought about 50% binding inhibition was calculated.

Structure (SMILES)	IC50 [nM]
Cc1c(C)n(C)c(=O)n(-c2ccc(C[C@H](NC(=O)c3cc(F)c(NS(=O)(=O)c4ccc(NC(=O)C(C)(C)C)cc4)cc3F)C(=O)O)cn2)c1=O [Compound A28]	0.56
Cn1c(=O)n(-c2ccc(C[C@H](NC(=O)c3cc(F)c(NS(=O)(=O)c4ccc(NC(=O)C5(c6ccccc6)CC5)cc4)cc3F)C(=O)O)cn2)c(=O)c2ccncc21 [Compound A29]	0.95
Cc1c(C)n(C)c(=O)n(-c2ccc(C[C@H](NC(=O)c3cc(F)c(NS(=O)(=O)c4ccc(NC(=O)C5(c6ccccc6)CC5)cc4)cc3F)C(=O)O)cc2)c1=O [Compound A30]	0.57
Cn1c(=O)n(-c2ccc(C[C@H](NC(=O)c3cc(F)c(NS(=O)(=O)c4ccc(NC(=O)C(C)(C)C)cn4)cc3F)C(=O)O)cn2)c(=O)c2ccncc21 [Compound A31]	0.71
Cc1c(C)n(C)c(=O)n(-c2ccc(C[C@H](NC(=O)c3cc(F)c(NS(=O)(=O)c4ccc(NC(=O)C(C)(C)C)cn4)cc3F)C(=O)O)cn2)c1=O [Compound A32]	0.62
Cn1c2c(c(=O)n(-c3ccc(C[C@H](NC(=O)c4cc(F)c(NS(=O)(=O)c5ccc(NC(=O)C(C)(C)C)cc5)cc4F)C(=O)O)cc3)c1=O)COCC2 [Compound A33]	0.45
Cc1c(C)n(C)c(=O)n(-c2ccc(C[C@H](NC(=O)c3cc(F)c(NS(=O)(=O)c4ccc(-n5ccc(C6CCOCC6)cc5=O)cc4)cc3F)C(=O)O)cc2)c1=O [Compound A34]	3.4
Cc1c(C)n(C)c(=O)n(-c2ccc(C[C@H](NC(=O)c3cc(F)c(NS(=O)(=O)c4ccc(N(C)C(=O)C(C)(C)C)cc4)cc3F)C(=O)O)cc2)c1=O [Compound A35]	9.8
COc1cc2c(=O)n(-c3ccc(C[C@H](NC(=O)c4cc(F)c(NS(=O)(=O)c5ccc(NC(=O)C(C)(C)C)cc5)cc4F)C(=O)O)cc3)c(=O)n(C)c2cn1 [Compound A36]	0.94
Cc1cn(C)c(=O)n(-c2ccc(C[C@H](NC(=O)c3cc(F)c(NS(=O)(=O)c4ccc(NC(=O)C(C)(C)C)cc4)cc3F)C(=O)O)cc2)c1=O [Compound A37]	1.1
CN1C(=O)N(c2ccc(S(=O)(=O)Nc3cc(F)c(C(=O)N[C@@H](Cc4ccc(-n5c(=O)c6ccncc6n(C)c5=O)nc4)C(=O)O)cc3F)cc2)C(=O)C1(C)C [Compound A38]	5.2
Cn1c2c(c(=O)n(-c3ccc(C[C@H](NC(=O)c4cc(F)c(NS(=O)(=O)c5ccc(NC(=O)C(C)(C)C)cc5)cc4F)C(=O)O)cn3)c1=O)CCOC2 [Compound A40]	0.74
CN1CCc2c(n(C)c(=O)n(-c3ccc(C[C@H](NC(=O)c4cc(F)c(NS(=O)(=O)c5ccc(NC(=O)C(C)(C)C)cc5)cc4F)C(=O)O)cc3)c2=O)C1 [Compound A41]	0.29
Cn1ccc(=O)n(-c2ccc(C[C@H](NC(=O)c3cc(F)c(NS(=O)(=O)c4ccc(NC(=O)C(C)(C)C)cc4)cc3F)C(=O)O)cc2)c1=O [Compound A42]	0.77
Cn1cnc2c1c(=O)n(-c1ccc(C[C@H](NC(=O)c3cc(F)c(NS(=O)(=O)c4ccc(NC(=O)C(C)(C)C)cc4)cc3F)C(=O)O)cc1)c(=O)n2C [Compound A43]	0.42
Cn1c2c(c(=O)n(-c3ccc(C[C@H](NC(=O)c4cc(F)c(NS(=O)(=O)c5ccc(NC(=O)C(C)(C)C)cc5)cc4F)C(=O)O)cn3)c1=O)COCC2 [Compound A44]	0.48
Cc1cc(=O)n(-c2ccc(C[C@H](NC(=O)c3cc(F)c(NS(=O)(=O)c4ccc(NC(=O)C(C)(C)C)cc4)cc3F)C(=O)O)cn2)c(=O)n1C [Compound A45]	1.6
Cc1cc(=O)n(-c2ccc(C[C@H](NC(=O)c3cc(F)c(NS(=O)(=O)c4ccc(NC(=O)C(C)(C)C)cc4)cc3F)C(=O)O)cc2)c(=O)n1C [Compound A46]	0.76
Cn1c2c(c(=O)n(-c3ccc(C[C@H](NC(=O)c4cc(F)c(NS(=O)(=O)c5ccc(NC(=O)C(C)(C)C)cc5)cc4F)C(=O)O)nc3)c1=O)CCCC2 [Compound A47]	0.74
Cc1c(C)n(C(C)C)c(=O)n(-c2ccc(C[C@H](NC(=O)c3cc(F)c(NS(=O)(=O)c4ccc(NC(=O)C(C)(C)C)cc4)cc3F)C(=O)O)cc2)c1=O [Compound A48]	2
Cc1c(C)n(C)c(=O)n(-c2ccc(C[C@H](NC(=O)c3cc(F)c(NS(=O)(=O)c4cccc(NC(=O)C(C)(C)C)c4)cc3F)C(=O)O)cc2)c1=O [Compound A49]	2.9
Cc1c(C)n(C)c(=O)n(-c2ccc(C[C@H](NC(=O)c3cc(F)c(NS(=O)(=O)c4cccc(NC(=O)C(C)(C)C)c4)cc3F)C(=O)O)cn2)c1=O [Compound A50]	6.4
Cc1c(CO)c(=O)n(-c2ccc(C[C@H](NC(=O)c3cc(F)c(NS(=O)(=O)c4ccc(NC(=O)C(C)(C)C)cc4)cc3F)C(=O)O)cc2)c(=O)n1C [Compound A51]	3.1
Cn1c2c(c(=O)n(-c3ccc(C[C@H](NC(=O)c4cc(F)c(NS(=O)(=O)c5ccc(NC(=O)C(C)(C)C)cc5)cc4F)C(=O)O)cn3)c1=O)CCCC2 [Compound A52]	0.7
Cn1ccc(=O)n(-c2ccc(C[C@H](NC(=O)c3cc(F)c(NS(=O)(=O)c4ccc(NC(=O)C(C)(C)C)cc4)cc3F)C(=O)O)cn2)c1=O [Compound A53]	2
Cc1cn(C)c(=O)n(-c2ccc(C[C@H](NC(=O)c3cc(F)c(NS(=O)(=O)c4ccc(NC(=O)C(C)(C)C)cc4)cc3F)C(=O)O)cn2)c1=O [Compound A54]	1.6
Cn1ccc(=O)n(-c2ccc(C[C@H](NC(=O)c3cc(F)c(NS(=O)(=O)c4ccc(NC(=O)C5(C(F)(F)F)CC5)cc4)cc3F)C(=O)O)cn2)c1=O [Compound A55]	2.2
Cc1cn(C)c(=O)n(-c2ccc(C[C@H](NC(=O)c3cc(F)c(NS(=O)(=O)c4ccc(NC(=O)C5(C(F)(F)F)CC5)cc4)cc3F)C(=O)O)cn2)c1=O [Compound A56]	1.2
Cn1ccc(=O)n(-c2ccc(C[C@H](NC(=O)c3cc(F)c(NS(=O)(=O)c4ccc(NC(=O)C(C)(C)C(F)(F)F)cc4)cc3F)C(=O)O)cn2)c1=O [Compound A57]	2
